Measurements as given in patent US20260294915A1, “COMBINATION THERAPY COMPRISING A MAT2A INHIBITOR AND A TOPOISOMERASE INHIBITOR, A SPLICING INHIBITOR SULFONAMIDE, OR A KIF18 INHIBITOR” (IDEAYA BIOSCIENCES, INC., priority 2023, published 2026).
Like-named read-outs stand apart in the source and are kept apart here.

Experiments:
Type in all cases: cell-based
NCI-H838 = experiment: 10-day proliferation screen with Compound A pre-treatment (Example 3); conditions: Homo sapiens, read-out: Growth IC50
Protocol: (§1) A 10-day proliferation screen was performed in 15 pancreatic, non-small cell lung, and bladder cancer cell lines: 10 MTAP null and 5 MTAP wild-type. Optimal cell seeding for all cell lines was determined by assessing the growth over a range of seeding densities in a 384-well format to identify conditions that permitted proliferation for 10 days. Cells were then plated at the optimal seeding density in the presence of 20-150 nM of Compound A or DMSO vehicle control. Cells were incubated at 37° C. with 5% CO2 for 4 days to allow for target engagement of the pre-treatment compound. Maintaining the pre-treatment condition, cells were also treated with an 11-point, three-fold titration series of compounds from a chemically diverse library of 424 compounds. The combination compound concentrations ranged from 0.2 nM to 14,679 nM. A plate of cells was harvested at the time of combination compound addition to quantify the number of cells at the start of the combination (T0). For cell quantification, the harvested cells were lysed with CellTiter-Glo (CTG) (Promega) reagent according to the manufacturer's protocol and the chemiluminescent signal was detected on a Synergy Neo plate reader (ThermoFisher, serial #140715A). CTG estimates cell number through detection of cellular ATP levels. Cells were incubated with the drug combinations at 37° C. with 5% CO2 for an additional 6 days for a total of a 10-day assay including the pre-treatment. Cells were then lysed with CTG and the chemiluminescent signal was measured. CTG values obtained after the 10-day treatment were background subtracted, expressed as a percent of the T0 value, and plotted against compound concentration. Data were fit with a four-parameter equation to generate concentration response curves. Growth IC50 values and maximal growth inhibition were compared between the DMSO and the Compound A pre-treated cells for each combination titration. Combination hit calling was based on the observation of >2-fold shift in growth IC50 and/or greater than 20% decrease in growth inhibition.

UMUC11 = experiment: as above; conditions: read-out: Growth IC50
Protocol: as §1

J82 = experiment: as above; conditions: Homo sapiens, read-out: Growth IC50
Protocol: as §1

NCI-H2228 = experiment: as above; conditions: Homo sapiens, read-out: Growth IC50
Protocol: as §1

NCI-H520 = experiment: as above; conditions: Homo sapiens, read-out: Growth IC50
Protocol: as §1

RT112/84 = experiment: as above; conditions: Homo sapiens, read-out: Growth IC50
Protocol: as §1

NCI-H2170 = experiment: as above; conditions: Homo sapiens, read-out: Growth IC50
Protocol: as §1

OE33 = experiment: as above; conditions: Homo sapiens, read-out: Growth IC50
Protocol: as §1

UMUC5 = experiment: as above; conditions: read-out: Growth IC50
Protocol: as §1

TCCSUP = experiment: as above; conditions: Homo sapiens, TCC-SUP, read-out: Growth IC50
Protocol: as §1

[1] = test system: 15 pancreatic, non-small cell lung, and bladder cancer cell lines: 10 MTAP null and 5 MTAP wild-type; experiment: 10-day proliferation screen with Compound A pre-treatment, panel summary (Example 3)
Protocol: as §1, with “The combination compound concentrations ranged from 0.2 nM to 14,679 nM.” left out, “CTG estimates cell number through detection of cellular ATP levels. Cells were incubated with the drug combinations at 37° C. with 5% CO2 for an additional 6 days for a total of a 10-day assay including the pre-treatment.” left out, “Data were fit with a four-parameter equation to generate concentration response curves. Growth IC50 values and maximal growth inhibition were compared between the DMSO and the Compound A pre-treated cells for each combination titration. Combination hit calling was based on the observation of >2-fold shift in growth IC50 and/or greater than 20% decrease in growth inhibition.” left out

[2] = test system: Panc 03.27 MTAP Knock-out Clone 31; experiment: 10-day proliferation screen with Compound A pre-treatment (Example 3); conditions: Homo sapiens, read-out: Growth IC50
Protocol: as §1, with “Cells were then plated at the optimal seeding density in the presence of 20-150 nM of Compound A or DMSO vehicle control.” left out

Panc 03.27 Parent = experiment: as above; conditions: Homo sapiens, read-out: Growth IC50
Protocol: as §1, with “Cells were then plated at the optimal seeding density in the presence of 20-150 nM of Compound A or DMSO vehicle control.” left out

[3] = PANC-03-27, Cmpd A pre-treatment 15 nM

IC50 (NCI-H838; NCI-H838, Cmpd A pre-treatment 20 nM): 539 nM
IC50 (NCI-H838; NCI-H838, Cmpd A pre-treatment 150 nM): 342 nM
IC50 (NCI-H838; NCI-H838, DMSO pre-treatment (control for 20 nM Cmpd A)): 1050 nM
IC50 (NCI-H838; NCI-H838, DMSO pre-treatment (control for 150 nM Cmpd A)): 807 nM
IC50 (NCI-H2228; NCI-H2228, Cmpd A pre-treatment 80 nM): 191 nM
IC50 (NCI-H2228; NCI-H2228, DMSO pre-treatment): 167 nM
IC50 (NCI-H520; NCI-H520, Cmpd A pre-treatment 80 nM): 790 nM
IC50 (NCI-H520; NCI-H520, DMSO pre-treatment): 727 nM
IC50 (NCI-H2170; NCI-H2170, Cmpd A pre-treatment 80 nM): 5550 nM
IC50 (NCI-H2170; NCI-H2170, DMSO pre-treatment): 7170 nM
cell lines with growth IC50 shifts ≥2-fold ([1]; MTAP-deficient cell lines): 7/10
cell lines with growth IC50 shifts ≥2-fold ([1]; wild type cell lines): 1/5
IC50 [2, 3]: 873 nM
IC50 ([2]; PANC-03-27, DMSO pre-treatment): 2170 nM
IC50 (Panc 03.27 Parent; [3]): 618 nM
IC50 (Panc 03.27 Parent; PANC-03-27, DMSO pre-treatment): 814 nM
Compound: NS(=O)(=O)c1ccc(S(=O)(=O)Nc2cccc3c(Cl)c[nH]c23)cc1 [Indisulam, N-(3-chloro-1H-indol-7-yl)benzene-1,4-disulfonamide]
IC50 (UMUC11; Cmpd A pre-treatment 150 nM): 1270 nM
IC50 (UMUC11; DMSO pre-treatment): 864 nM
IC50 (J82; J82, Cmpd A pre-treatment 150 nM): 7100 nM
IC50 (J82; J82, DMSO pre-treatment): 12500 nM
IC50 (RT112/84; RT112/84, Cmpd A pre-treatment 150 nM): 229 nM
IC50 (RT112/84; RT112/84, DMSO pre-treatment): 913 nM
IC50 (OE33; OE33, Cmpd A pre-treatment 150 nM): 5370 nM
IC50 (OE33; OE33, DMSO pre-treatment): 12100 nM
IC50 (UMUC5; Cmpd A pre-treatment 150 nM): 807 nM
IC50 (UMUC5; DMSO pre-treatment): 1830 nM
IC50 (TCCSUP; Cmpd A pre-treatment 150 nM): 6080 nM
IC50 (TCCSUP; DMSO pre-treatment): 8660 nM
